Key:
[1] = tested on: caspase 3/7 activity in U251MG cells; assay: Caspase activation assay (Caspase-3/7 luminescence); type: cell-based; conditions: 48 h
Protocol: U251MG cells were seeded, maintained, and treated with test compounds as described above for 48 h at 37° C. Quantification of total cellular Caspase-3 and 7 activity was accomplished using a Caspase-3/7 luminescence assay kit (Promega) according to the manufacturer's recommendations and analyzed with a POLARstar Omega micro-titer plate reader (BMG).

[2] = tested on: Akt1 levels in U251MG cells; assay: Biomarker quantitation by ELISA, Akt1; type: cell-based
Protocol: (§1) U251 cells were plated in 6 well format culture dishes overnight at 37° C. with 5% CO2 and then treated with increasing concentrations of test compounds for 48 h at 37° C. with 5% CO2. Quantification of total Akt1, EGFR, and Hsp70 in cell lysates was accomplished using ELISA kits (R&D Systems) according to the manufacturer's recommendations and utilizing a Synergy HT micro-titer plate reader (Biotek). Cell lysates were prepared as recommended in the kit procedure. Protein concentrations of lysates clarified using centrifugation were determined using a Bradford assay (Thermo Scientific), and the values were used to normalize the biomarker values.

[3] = tested on: EGFR levels in U251MG cells; assay: Biomarker quantitation by ELISA, EGFR; type: cell-based; conditions: 16 uM, 48 h
Protocol: as §1

[4] = tested on: Hsp70 levels in U251MG cells; assay: Biomarker quantitation by ELISA, Hsp70; type: cell-based; conditions: 15.6 uM, 48 h
Protocol: as §1

[5] = tested on: mitochondria isolated from U251MG cells; assay: TMRE assay, TMRE-loaded isolated mitochondria; type: cell-based; conditions: 30° C.
Protocol: For cell-based assays, cells were treated with various concentrations of the test compounds for 48 hours at 37° C., with 5% CO2. TMRE (200 nM) was then added to wells for 30 min and monitored for changes in fluorescence activity either by fluorescence microscopy using an inverted Zeiss LSM 710 confocal microscope or by spectrophotometry using a fluorescence plate reader (544ex/590em) after washing the cells. Specific TMRE fluorescence was calculated by comparison to matched wells pretreated with 20 uM FCCP for 10 min prior to addition of TMRE. For mitochondria assays, untreated U251MG cells grown to confluence in T75 culture flasks. Mitochondria from these cells were isolated using a mitochondria isolation kit (Thermo Scientific) and loaded with 0.1 mM TMRE in kit buffer at 37° C. for 20 min. After washing, the TMRE-loaded mitochondria (2 ug per well) were incubated in a 96 well black plate with test compounds and monitored kinetically at 30° C. for changes in fluorescence using a fluorescence plate reader (ex 544/em 590). The fluorescence intensity after treatment with 20 um FCCP in control wells corresponded to a fully depolarized state.

[6] = tested on: U251MG cell mitochondrial respiration; assay: Mitochondrial respiratory function assay (OCR, Seahorse); type: cell-based; conditions: U251MG cells, stressed conditions (oligomycin, FCCP, rotenone); within minutes
Protocol: The effect of test compounds on the mitochondrial oxygen consumption rate (OCR) was determined in real time using a Seahorse Xr24 extracellular flux analyzer (Seahorse Bioscience). The cell-based assay was performed essentially as recommended by the manufacturer. Briefly, cells were seeded in a 24 well XF plate using an appropriate cell density. “Flux Pak” cartridge (containing the O2 and H^+ sensitive fluorophores) were hydrated in the XF calibrant solution overnight just prior to running the assay. On the following day, the cells were replenished with XF assay media (unbuffered DMEM containing 10 mM glucose and 2 mM pyruvate) and placed in a CO2 free 37° C. incubator for an additional one hour. Basal OCR was measured before the wells were injected with test compounds. Subsequently, mitochondrial bioenergetics stress was determined by treating the cells sequentially with 0.125 mg/ml Oligomycin (ATP synthase inhibitor), […] FCCP (uncoupler) and […] rotenone (Complex I inhibitor) while continuously measuring the OCR.

GBM10 = assay: Cellular efficacy in Mayo Clinic GBM PDX cell line GBM10; type: cell-based
Protocol: Short-term explant cultures from PDX models were seeded into 96-well Perfecta3D hanging drop plates to form a single spheroid in each well after 2 days. The spheroids were transferred to a round bottom 96 well plate by centrifugation and then incubated with graded concentrations of test compound (8 spheroids per compound concentration). Spheroid volumes were monitored every 6 hours over the course of 5 days using the IncuCyte system (Essen BioScience, MI, US) to provide a growth curve akin to a tumor regrowth assay.

[7] = tested on: Hsp90 client proteins (Akt1, ERK1) in MDA-MB-231 cell line; assay: Cellular biomarker assays (Akt1, ERK1 ELISA) in MDA-MB-231; type: cell-based; conditions: 48 hours
Protocol: (§2) Cellular biomarker assays: Cells were cultured in culture medium (RPMI-glutamax, 10% FCS, 100 units/ml penicillin, and 100 μg/ml streptomycin). Cells were passaged after lifting using 0.25% trypsin/EDTA, and 3×10^5 cells were seeded in each well of six well plates (total volume 2.5 mL/well). After the cells were cultured for 24 hours, increasing concentrations of Hsp90 inhibitor were added to wells in triplicate from DMSO-containing stock solutions and mixed by gently by stirring. Final DMSO concentration in all wells was 0.25%. The treated cells were then cultured for 48 hours prior to lysate preparation. The culture media was removed from wells, and the wells were washed twice with DPBS containing 1 mM CaCl2 and 0.5 mM MgCl2. […] The protein concentration in the cell lysates was determined using the BCA protein assay kit used according to the manufacturer's recommendations. […] Protein concentrations were determined using a micro-titer plate reader (Model # Synergy HT; BioTek Inc., Winooski, Vt.).
(§3) Akt1 and ERK1 levels in the cell lysates were measured using kits from R&D Systems used according to the manufacturer's recommendations. […] Akt1 and ERK1 levels were determined using a micro-titer plate reader (Model # Synergy HT; BioTek Inc., Winooski, Vt.) (FIGS. 5 and 8).

[8] = tested on: Hsp90 client proteins (Akt1, ERK1) in HEI193; assay: Cellular biomarker assays (Akt1, ERK1 ELISA) in HEI193; type: cell-based, human; conditions: 48 hour treatment
Protocol: as §2, §3

Row | Structure (SMILES) | U251MG caspase 3/7 activity increase ([1]; 50 uM) [fold] | Lowest concentration at which an increase in caspase activity was observed ([1]; U251MG) [µM] | Reduction of Akt1 levels ([2]; 15.6 uM, 48 h) [%] | IC50 ([2]; Homo sapiens, U-251, 48 h, read-out: Akt1 level reduction IC50) [µM] | Reduction of EGFR levels [3] [%] | Increase of Hsp70 levels [4] [fold] | Membrane potential of isolated mitochondria reduced to ([5]; 4 uM) [%] | Membrane potential of isolated mitochondria reduced to ([5]; 20 uM) [%] | Effect on mitochondrial oxygen consumption rate [6] | EC50 (GBM10) [µM] | Effect on Akt1 and ERK1 levels, MDA-MB-231 [7] | Effect on Akt1 and ERK1 levels, HEI193 [8]
1 | COc1c(C)cnc(CN(CCc2ccccn2)c2cc(Cl)nc(N)n2)c1C [Compound 1, 6-chloro-4-N-[(4-methoxy-3,5-dimethylpyridin-2yl)methyl]-4-N-[2-(pyridine-2-yl)ethyl]pyrimidine-2,4-amine] | 6.8 | 1.6 | 79 | 2.4 | 71 | 6 | 61 | 52 | dose-dependent decrease | – | – | –
2 | COc1c(C)cnc(CN(CC2(c3ccc(F)cc3)CCOCC2)c2cc(Cl)nc(N)n2)c1C [Compound A, 6-chloro-4-N-{[4-(4-fluorophenyl)oxan-4-yl]methyl}-4-N-[(4-methoxy-3,5-dimethylpyridin-2-yl)methyl]pyrimidine-2,4-diamine] | – | – | – | – | – | – | – | – | – | 0.28 | suppression of Hsp90 client proteins | reduction of Hsp90 client proteins
